# Results reported in patent US20040092438A1, “Gd3-synthesis inhibitors for treating neuropathological disorders” (priority 1999, published 2004).
# Experiments:
# [1] = system: GD3 levels in the ischemic hemisphere; assay: GD3 levels in brain after MCA occlusion (thin-layer chromatography); type: in vivo, mice (C57BL6 strain); conditions: single i.p. 100 mg/kg with piperonyl butoxide 400 mg/kg, 15 min after MCA occlusion; 90-minute occlusion, 24-hour reperfusion
# Description: (§3) This was done by pushing a siliconized nylon suture through the common carotid artery as far as the MCA and stopping the blood flow through the MCA. After 90 min, the thread was withdrawn and thus the blood circulation was restored. The animals were under deep anesthesia (ketamine and Rompun; each 150 mg/kg of bodyweight) and the rectal temperature was maintained at about 37° C. with heat lamps and a heated cushion throughout the operation. After an observation period of 24 hours, the animals were again anesthetized, and the brains were dissected after perfusion.
# Thus, tissues and cells were disrupted by two freeze-thaw cycles. The polar lipids were extracted, and the gangliosides were chromatographed on silica gel plates 60 for high performance thin-layer chromatography (HPTLC) (Merck, Darmstadt, Germany), dried and visualized with resorcinol. […] For the immunostaining, the plates were coated with 0.5% poly(isobutyl methacrylate) in hexane, dried, incubated with the monoclonal antibody R24 (IgG3) directed against GD3 for 1 h, and read via the immunoperoxidase stain. The bands were then scanned and analyzed by densitometry using the AIDA-1000/1B image analyzer (Raytest Isotopenmessgerate, Straubenhardt, Germany).
# [2] = system: focal cerebral ischemia; conditions: single i.p. 100 mg/kg with piperonyl butoxide; p <0.007
# Description: as §3
# The stained sections were scanned directly (MCID-M4,3.0; Imaging Res. Inc.). […] The significance was determined by the Mann-Whitney test. […] Averaging took place with the Scion-Image b 3.b.
# [3] = system: GD3 synthase; assay: GD3 levels in neurons after oxygen/glucose deficiency and reperfusion (thin-layer chromatography); type: cell-based, mouse; conditions: 80 nM added 48 h before 6-hour oxygen/glucose deficiency, 24-hour reperfusion; relative to ST8-Sc-treated neurons
# Description: The procedure for generating a combined oxygen/glucose deficiency was known per se (Kaku, D. A., et al., Brain Res. 554:344-7; Monyer, H. et al., Neuron 8, 967-73 (1992); with slight modifications). The culture medium was replaced by MEM, 1% horse serum and 2 mM L-glutamine. The cultures were kept in an anaerobic chamber which contained a gas mixture comprising […], 85% N2 and 5% CO2, at 37° C. and 100% humidity for 6 h. The oxygen/glucose deficiency was abolished by removing the cultures from the chamber and adding horse serum and glucose to a final concentration of 10% and 25 mM respectively. The cultures were then replaced in a humidity incubator containing 8% CO2 and atmospheric oxygen for a further 3 h, 18 h or 24 h. […]
# GD3 was determined as previously described by De Maria, R., et al., Science 277, 1652-5 (1997). […] For the immunostaining, the plates were coated with 0.5% poly(isobutyl methacrylate) in hexane, dried, incubated with the monoclonal antibody R24 (IgG3) directed against GD3 for 1 h, and read via the immunoperoxidase stain. The bands were then scanned and analyzed by densitometry using the AIDA-1000/1B image analyzer (Raytest Isotopenmessgerate, Straubenhardt, Germany).
# [4] = system: primary neurons; assay: Oxygen/glucose deficiency in vitro, specific death of primary neurons; type: cell-based, mouse; conditions: 80 nM added 48 h before 6-hour oxygen/glucose deficiency, then reperfusion; relative to ST8-Sc-treated neurons
# Description: Neurons were obtained from transgenic mice whose acid sphingomyelinase had been inactivated (ASM^−/−; Hirunouchi, K., et al., Nature Genetics 10, 288-294 (1995)) and wild-type mice of the same generation (ASM^+/+). Primary neuron cultures were prepared from 15- to 17-day mouse fetuses as previously described by Dawson, T. M., et al, Ann. neurol. 30, 843-6 (1991). […] The cells were applied to polyornithine-coated 24-well plates (Sigma, Deisenhofen, Germany). After 4 days, the cells were treated with cytosine arabinoside (5 μM) for a further four days in order to inhibit the proliferation of non-neural cells. The cell cultures were then kept at 8% CO2 and 37° C. in MEM, 10% horse serum, 25 mM glucose and 2 mM L-glutamine in a humidity incubator. The neurons were allowed to mature in culture for at least 8 days before being used for the experiment. The proportion of glial cells in the culture was determined using an antibody directed against glial fibrillary acidic protein (GFAP) to be less than 10%. […]
# (§1) The percentage of dead cells was determined by trypan blue exclusion and expressed as percentage of the specific death. This was calculated as follows:
# (§2) % specific death=(detected death−spontaneous death)/(100−spontaneous death)×100
# [5] = system: primary neurons; assay: Neuronal death after addition of gangliosides to cortical neuron cultures; type: cell-based, mouse; conditions: 24 h after addition of 500 μM (highest dose) to cortical neuronal cells
# Description: Neurons were obtained from transgenic mice whose acid sphingomyelinase had been inactivated (ASM^−/−; Hirunouchi, K., et al., Nature Genetics 10, 288-294 (1995)) and wild-type mice of the same generation (ASM^+/+). Primary neuron cultures were prepared from 15- to 17-day mouse fetuses as previously described by Dawson, T. M., et al, Ann. neurol. 30, 843-6 (1991). […] The cells were applied to polyornithine-coated 24-well plates (Sigma, Deisenhofen, Germany). After 4 days, the cells were treated with cytosine arabinoside (5 μM) for a further four days in order to inhibit the proliferation of non-neural cells. The cell cultures were then kept at 8% CO2 and 37° C. in MEM, 10% horse serum, 25 mM glucose and 2 mM L-glutamine in a humidity incubator. The neurons were allowed to mature in culture for at least 8 days before being used for the experiment. The proportion of glial cells in the culture was determined using an antibody directed against glial fibrillary acidic protein (GFAP) to be less than 10%.
# as §1, §2
# Cortical neuronal cells were treated with increasing doses of GD3. […]
compound,measurement,setting,value
"CCCCCCCCCC(=O)N[C@H](CN1CCOCC1)[C@H](O)c1ccccc1 [D-PDMP, D-threo-1-phenyl-2-decanoylamino-3-morpholino-1-propanol]",increase in GD3 on the ischemic side compared with the non-ischemic side,[1],10%
same,reduction in the lesion caused by stroke compared with untreated ischemic animals,[2],90%
"GD3 synthase antisense oligodeoxynucleotides: antisense oligodeoxynucleotides against GD3 synthase (SEQ ID NO:2) (antisense CAGTACAGCCATGGCCCCTCT; DNA, backbone and methylation of C not given here)","accumulation of GD3, % of controls",[3],55%
same,"mortality, % of the level in cultures treated with randomly arranged sequence",[4],50%
"II^3(NeuAc-α-2,8-NeuAc)LacCer [GD3]",specific neuronal death,[5],up to 80%
